In patent publication US20100317607A1, “USE OF COMPOUNDS FOR PREPARING ANTI-TUBERCULOSIS AGENTS” (INFECTIOUS DISEASE RESEARCH INSTITUTE, priority 2007, published 2010):
≈ marks a conversion by molar mass, not a printed value. Structures can show the parent of a compound that is named as a salt.

What was measured:
[1] = tested on: H37Rv strain of M. tuberculosis; test: Alamar Blue Susceptibility Test (MABA); format: cell-based; settings: H37Rv strain of M. tuberculosis, Alamar Blue; for MIC: Mycobacterium tuberculosis, read-out: MABA (TB growth inhibition, colourimetric assay)
[2] = tested on: non replicating phase of M. tuberculosis (H37Rv with a plasmid with an acetimidase promoter driving a luciferase gene); test: microbe, parasite or virus in culture; format: cell-based; settings: non replicating M. tuberculosis H37Rv luciferase strain; for MIC: Mycobacterium tuberculosis, read-out: LORA (TB growth inhibition, MIC)

Compound: c1ccc(CNc2nc(N3CCC(c4ccccc4)CC3)nc3ccccc23)cc1 [Compound 132, N-Benzyl-2-(4-phenylpiperidin-1-yl)quinazolin-4-amine hydrochloride]
- MIC [1]: < 10 µM
- MIC [2]: < 10 µM

Compound: c1ccc(CNc2nc(N3CCc4ccccc4C3)nc3ccccc23)cc1 [Compound 30, N-Benzyl-2-(3,4-dihydroisoquinolin-2(1H)-yl)quinazolin-4-amine]
- MIC [1]: < 10 µM
- MIC [2]: < 10 µM

Compound: COc1ccc(N2CCN(c3nc(NCc4ccccc4)c4ccccc4n3)CC2)cc1 [Compound 136, N-Benzyl-2-(4-(4-methoxyphenyl)piperazin-1-yl)quinazolin-4-amine hydrochloride]
- MIC [1]: < 10 µM
- MIC [2]: 10 to 50 µM

Compound: CC(Nc1nc(N2CCCC2)nc2ccccc12)c1ccccc1 (stereo not shown) [Compound 14, N-(1-Phenylethyl)-2-(pyrrolidin-1-yl)quinazolin-4-amine]
- MIC [1]: 10 to 50 µM (≈ 3.18 to 15.9 µg/mL)
- MIC [2]: 10 to 50 µM (≈ 3.18 to 15.9 µg/mL)

Compound: Fc1cccc(CNc2nc(N3CCCCC3)nc3ccccc23)c1 [Compound 64, N-(3-Fluorobenzyl)-2-(piperidin-1-yl)quinazolin-4-amine]
- MIC [1]: < 10 µM
- MIC [2]: 10 to 50 µM (≈ 3.36 to 16.8 µg/mL)

Compound: FC(F)(F)c1ccc(CNc2nc(NCc3ccccc3)c3ccccc3n2)cc1 [Compound 128, N^4-Benzyl-N^2-(4-(trifluoromethyl)benzyl)quinazoline-2,4-diamine hydrochloride]
- MIC [1]: < 10 µM
- MIC [2]: < 10 µM

Compound: CN(C)c1ccc(CNc2nc(N3CCCCC3)nc3ccccc23)cc1 [Compound 62, N-(4-(Dimethylamino)benzyl)-2-(piperidin-1-yl)quinazolin-4-amine]
- MIC [1]: < 10 µM
- MIC [2]: 10 to 50 µM (≈ 3.61 to 18.1 µg/mL)

Compound: c1coc(CNc2nc(N3CCCCC3)nc3ccccc23)c1 [Compound 13, N-(Furan-2-ylmethyl)-2-(piperidin-1-yl)quinazolin-4-amine]
- MIC [1]: < 10 µM
- MIC [2]: 10 to 50 µM (≈ 3.08 to 15.4 µg/mL)

Compound: FC(F)(F)c1ccc(CNc2nc(N3CCCC3)nc3ccccc23)cc1 [Compound 78, 2-(Pyrrolidin-1-yl)-N-(4-(trifluoromethyl)benzyl)quinazolin-4-amine]
- MIC [1]: < 10 µM
- MIC [2]: 10 to 50 µM (≈ 3.72 to 18.6 µg/mL)

Compound: C[C@@H](Nc1nc(N2CCCCC2)nc2ccccc12)c1ccc(Cl)cc1 [Compound 96, (R)—N-(1-(4-Chlorophenyl)ethyl)-2-(piperidin-1-yl)quinazolin-4-amine hydrochloride]
- MIC [1]: < 10 µM
- MIC [2]: 10 to 50 µM

Compound: Clc1ccc(CCNc2nc(N3CCCCC3)nc3ccccc23)cc1 [Compound 83, N-(4-Chlorophenethyl)-2-(piperidin-1-yl)quinazolin-4-amine hydrochloride]
- MIC [1]: < 10 µM
- MIC [2]: < 10 µM

Compound: c1ccc(CNc2nc(N3CCCCC3)nc3ccccc23)cc1 [Compound 4, N-Benzyl-2-(piperidin-1-yl)quinazolin-4-amine]
- MIC [1]: < 10 µM
- MIC [2]: 10 to 50 µM (≈ 3.18 to 15.9 µg/mL)

Compound: FC(F)(F)c1ccc(CNc2nc(N3CCCCC3)nc3ccccc23)cc1 [Compound 38, 2-(Piperidin-1-yl)-N-(4-(trifluoromethyl)benzyl)quinazolin-4-amine]
- MIC [1]: < 10 µM
- MIC [2]: < 10 µM

Compound: Cc1ccc(CNc2nc(N3CCCCC3)nc3ccccc23)cc1 [Compound 43, N-(4-Methylbenzyl)-2-(piperidin-1-yl)quinazolin-4-amine]
- MIC [1]: < 10 µM
- MIC [2]: 10 to 50 µM (≈ 3.32 to 16.6 µg/mL)

Compound: N#Cc1ccc(CNc2nc(N3CCCCC3)nc3ccccc23)cc1 [Compound 92, 4-((2-(Piperidin-1-yl)quinazolin-4-ylamino)methyl)benzonitrile]
- MIC [1]: < 10 µM
- MIC [2]: 50 to 128 µM (≈ 17.2 to 44 µg/mL)

Compound: Clc1ccc(CNc2nc(N3CCc4ccccc4C3)nc3ccccc23)cc1 [Compound 106, N-(4-Chlorobenzyl)-2-(3,4-dihydroisoquinolin-2(1H)-yl)quinazolin-4-amine hydrochloride]
- MIC [1]: < 10 µM
- MIC [2]: < 10 µM

Compound: COc1ccc(CCNc2nc(N3CCCCC3)nc3ccccc23)cc1 [Compound 84, N-(4-Methoxyphenethyl)-2-(piperidin-1-yl)quinazolin-4-amine hydrochloride]
- MIC [1]: < 10 µM
- MIC [2]: 10 to 50 µM

Compound: Clc1ccc(CNc2nc(NCc3ccccc3)c3ccccc3n2)cc1 [Compound 127, N^4-Benzyl-N^2-(4-chlorobenzyl)quinazoline-2,4-diamine hydrochloride]
- MIC [1]: < 10 µM
- MIC [2]: < 10 µM

Compound: FC(F)(F)c1ccc(N2CCN(c3nc(NCc4ccccc4)c4ccccc4n3)CC2)cc1 [Compound 135, N-Benzyl-2-(4-(4-(trifluoromethyl)phenyl)piperazin-1-yl)quinazolin-4-amine hydrochloride]
- MIC [1]: < 10 µM
- MIC [2]: 10 to 50 µM

Compound: c1ccc2c(CNc3nc(N4CCCCC4)nc4ccccc34)cccc2c1 [Compound 37, N-(Naphthalen-1-ylmethyl)-2-(piperidin-1-yl)quinazolin-4-amine]
- MIC [1]: < 10 µM
- MIC [2]: < 10 µM

Compound: Fc1ccccc1CNc1nc(N2CCCCC2)nc2ccccc12 [Compound 65, N-(2-Fluorobenzyl)-2-(piperidin-1-yl)quinazolin-4-amine]
- MIC [1]: < 10 µM
- MIC [2]: 10 to 50 µM (≈ 3.36 to 16.8 µg/mL)

Compound: Fc1ccc(CNc2nc(N3CCCCC3)nc3ccccc23)cc1 [Compound 63, N-(4-Fluorobenzyl)-2-(piperidin-1-yl)quinazolin-4-amine]
- MIC [1]: < 10 µM
- MIC [2]: 10 to 50 µM (≈ 3.36 to 16.8 µg/mL)

Compound: c1ccc(CNc2nc(N3CCN(c4ccccc4)CC3)nc3ccccc23)cc1 [Compound 133, N-Benzyl-2-(4-phenylpiperazin-1-yl)quinazolin-4-amine hydrochloride]
- MIC [1]: < 10 µM
- MIC [2]: 10 to 50 µM

Compound: c1ccc(CNc2nc(NC3Cc4ccccc4C3)nc3ccccc23)cc1 [Compound 131, N^4-Benzyl-N^2-(2,3-dihydro-1H-inden-2-yl)quinazoline-2,4-diamine]
- MIC [1]: < 10 µM
- MIC [2]: < 10 µM

Compound: Clc1ccc(CNc2nc(N3CCCCC3)nc3ccccc23)cc1Cl [Compound 68, N-(3,4-Dichlorobenzyl)-2-(piperidin-1-yl)quinazolin-4-amine]
- MIC [1]: < 10 µM
- MIC [2]: < 10 µM

Compound: CC(Nc1nc(N2CCN(C(=O)C3CCCC3)CC2)nc2ccccc12)c1ccccc1 (stereo not shown) [Compound 21, Cyclopentyl(4-(4-(1-phenylethylamino)quinazolin-2-yl)piperazin-1-yl)methanone]
- MIC [1]: 10 to 50 µM (≈ 4.3 to 21.5 µg/mL)
- MIC [2]: 10 to 50 µM (≈ 4.3 to 21.5 µg/mL)

Compound: c1ccc2c(NC34CC5CC(CC(C5)C3)C4)nc(N3CCCCC3)nc2c1 [Compound 59, N-(1′-Adamantyl)-2-(piperidin-1-yl)quinazolin-4-amine]
- MABA (TB growth inhibition, colourimetric assay) [1]: +++ (10-50 μM=+++)
- LORA (TB growth inhibition, MIC) [2]: ++++ (key: TB growth<10 μM=++++; 10-50 μM=+++; 50-128 μM=++; >128 μM but inhibited=+; no inhibition=−)

Compound: Fc1ccc(CNc2nc(N3CCCCC3)nc3ccccc23)cc1F [Compound 116, N-(3,4-Difluorobenzyl)-2-(piperidin-1-yl)quinazolin-4-amine hydrochloride]
- MIC [1]: < 10 µM
- MIC [2]: 10 to 50 µM

Compound: COc1ccc(CNc2nc(N3CCCCC3)nc3ccccc23)cc1 [Compound 44, N-(4-Methoxybenzyl)-2-(piperidin-1-yl)quinazolin-4-amine]
- MIC [1]: < 10 µM
- MIC [2]: 10 to 50 µM (≈ 3.48 to 17.4 µg/mL)

Compound: Cc1ccc(CNc2nc(NCc3ccc(Cl)cc3)c3ccccc3n2)cc1 [Compound 76, N^4-(4-Chlorobenzyl)-N^2-(4-methylbenzyl)quinazoline-2,4-diamine]
- MIC [1]: < 10 µM
- MIC [2]: 10 to 50 µM (≈ 3.89 to 19.4 µg/mL)

Compound: c1ccc(CNc2nc(NCc3ccccc3)c3ccccc3n2)cc1 [Compound 18, N^2,N^4-Dibenzylquinazoline-2,4-diamine]
- MIC [1]: 10 to 50 µM (≈ 3.4 to 17 µg/mL)
- MIC [2]: 10 to 50 µM (≈ 3.4 to 17 µg/mL)

Compound: c1ccc(CNc2nc(N3CCOCC3)nc3ccccc23)cc1 [Compound 5, N-Benzyl-2-morpholinoquinazolin-4-amine]
- MIC [1]: 50 to 128 µM (≈ 16 to 41 µg/mL)
- MIC [2]: 50 to 128 µM (≈ 16 to 41 µg/mL)

Compound: Clc1cccc(CNc2nc(N3CCCCC3)nc3ccccc23)c1 [Compound 41, N-(3-Chlorobenzyl)-2-(piperidin-1-yl)quinazolin-4-amine]
- MIC [1]: < 10 µM
- MIC [2]: 10 to 50 µM (≈ 3.53 to 17.6 µg/mL)

Compound: c1csc(CNc2nc(N3CCCCC3)nc3ccccc23)c1 [Compound 48, 2-(Piperidin-1-yl)-N-(thiophen-2-ylmethyl)quinazolin-4-amine]
- MIC [1]: < 10 µM
- MIC [2]: 10 to 50 µM (≈ 3.24 to 16.2 µg/mL)

Compound: CCC(CC)(Nc1nc(N2CCCC2)nc2ccccc12)c1ccccc1 [Compound 124, N-(3-Phenylpentan-3-yl)-2-(pyrrolidin-1-yl)quinazolin-4-amine]
- MIC [1]: < 10 µM
- MIC [2]: 10 to 50 µM (≈ 3.61 to 18 µg/mL)

Compound: c1ccc(CNc2nc(N3Cc4ccccc4C3)nc3ccccc23)cc1 [Compound 130, N-Benzyl-2-(isoindolin-2-yl)quinazolin-4-amine]
- MIC [1]: < 10 µM
- LORA (TB growth inhibition, MIC) [2]: −

Compound: c1ccc(CCCNc2nc(N3CCCCC3)nc3ccccc23)cc1 [Compound 95, N-(3-Phenylpropyl)-2-(piperidin-1-yl)quinazolin-4-amine]
- MIC [1]: < 10 µM

Compound: FC(F)(F)c1ccc(CNc2nc(N3CCCCC3)nc3ccccc23)cn1 [Compound 196, 2-(Piperidin-1-yl)-N-((6-(trifluoromethyl)pyridin-3-yl)methyl)quinazolin-4-amine hydrochloride]
- MIC [1]: 10 to 50 µM

Compound: c1csc(CNc2nc(N3CCCC3)nc3ccccc23)c1 [Compound 187, 2-(Pyrrolidin-1-yl)-N-(thiophen-2-ylmethyl)quinazolin-4-amine]
- MIC [1]: 10 to 50 µM (≈ 3.1 to 15.5 µg/mL)

Compound: O=C(c1ccccc1)N1CCN(c2nc(NCc3ccc(F)cc3)c3ccccc3n2)CC1 [Compound 204, (4-(4-(4-Fluorobenzylamino)quinazolin-2-yl)piperazin-1-yl)(phenyl)methanone]
- MIC [1]: 50 to 128 µM (≈ 22.1 to 56.5 µg/mL)

Compound: Fc1ccc(CNc2nc(N3CCC(F)(F)CC3)nc3cc(F)ccc23)cc1 [Compound 156, 2-(4,4-Difluoropiperidin-1-yl)-7-fluoro-N-(4-fluorobenzyl)quinazolin-4-amine]
- MIC [1]: 10 to 50 µM (≈ 3.9 to 19.5 µg/mL)

Compound: Clc1ccc(CNc2nc(N3CCCCC3)nc3ccccc23)s1 [Compound 189, N-((5-Chlorothiophen-2-yl)methyl)-2-(piperidin-1-yl)quinazolin-4-amine]
- MIC [1]: < 10 µM

Compound: Fc1ccc(CNc2nc(N3CCCCC3)nc3ncccc23)cc1 [Compound 174, N-(4-Fluorobenzyl)-2-(piperidin-1-yl)pyrido[2,3-d]pyrimidin-4-amine]
- MIC [1]: 10 to 50 µM (≈ 3.37 to 16.9 µg/mL)
